Data reported in ChEMBL document CHEMBL1132638, “New (sulfonyloxy)piperazinyldibenzazepines as potential atypical antipsychotics: chemistry and pharmacological evaluation” (J Med Chem, 1999).
pIC50: −log10 of the molar value.

Tests used:
[1] = Partition coefficient (logP); format: physicochemical; settings: octanol/water
[2] = molecular target: T1, D(4) dopamine receptor (Homo sapiens, UniProt P21917); assay: Binding affinity towards human D4.2 receptor
T1 sequence (P21917 whole entry): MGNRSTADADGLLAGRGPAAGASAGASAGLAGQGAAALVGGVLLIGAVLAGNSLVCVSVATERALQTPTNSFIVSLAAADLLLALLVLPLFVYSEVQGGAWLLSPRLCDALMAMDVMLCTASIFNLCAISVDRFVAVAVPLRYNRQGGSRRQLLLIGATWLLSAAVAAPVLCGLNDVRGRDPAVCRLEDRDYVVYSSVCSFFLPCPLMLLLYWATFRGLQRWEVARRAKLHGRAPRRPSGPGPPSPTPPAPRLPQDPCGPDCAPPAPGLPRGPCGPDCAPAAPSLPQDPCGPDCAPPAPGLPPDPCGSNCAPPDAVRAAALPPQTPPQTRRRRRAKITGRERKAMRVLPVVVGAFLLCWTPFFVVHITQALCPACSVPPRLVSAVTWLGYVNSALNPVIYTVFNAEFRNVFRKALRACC

[3] = system: Mus musculus; assay: Inhibition of apomorphine induced climbing affects in mice by administering the compound perorally in mice; format: functional
[4] = system: Mus musculus; assay: Inhibition of apomorphine induced climbing affects in mice by administering the compound subcutaneously in mice; format: functional; settings: sc
[5] = molecular target: T2, Muscarinic acetylcholine receptor M1 (Homo sapiens, UniProt P11229); assay: Inhibition of binding of 1.0 nM [3H]pirenzepine to cloned human Muscarinic acetylcholine receptor M1 expressed in membranes from CHO-K1 cells; format: cell-based
T2 sequence (P11229 whole entry): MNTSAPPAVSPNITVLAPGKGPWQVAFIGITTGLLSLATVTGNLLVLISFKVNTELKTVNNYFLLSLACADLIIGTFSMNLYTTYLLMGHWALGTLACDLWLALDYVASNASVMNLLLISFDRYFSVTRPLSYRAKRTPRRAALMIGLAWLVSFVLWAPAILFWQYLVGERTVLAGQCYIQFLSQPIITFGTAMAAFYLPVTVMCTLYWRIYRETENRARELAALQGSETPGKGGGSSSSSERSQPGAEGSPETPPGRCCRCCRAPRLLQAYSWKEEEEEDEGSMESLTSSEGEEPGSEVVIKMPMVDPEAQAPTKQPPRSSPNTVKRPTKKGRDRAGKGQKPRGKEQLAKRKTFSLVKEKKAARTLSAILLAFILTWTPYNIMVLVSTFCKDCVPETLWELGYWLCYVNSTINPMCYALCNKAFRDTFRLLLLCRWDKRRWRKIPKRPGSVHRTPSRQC

[6] = system: Rattus norvegicus; assay: Compound is measured for inhibition of catalepsy in rat by peroral administration of compound; format: functional; settings: po
[7] = system: Rattus norvegicus; assay: Inhibition of catalepsy in rat by subcutaneous administration of compound; format: functional; settings: sc
[8] = Therapeutic ratio by Peroral dose of administration (quotient ED50 catalepsy/ED50 climbing); format: ADME, organism-based; settings: in vivo, po; read-out: Therapeutic ratio
[9] = Delta ED50 value by Subcutaneous administration (ED50 catalepsy-ED50 Climbing); format: functional
[10] = Delta ED50 value by peroral administration (ED50 catalepsy-ED50 Climbing); format: functional
[11] = molecular target: D(3) dopamine receptor (Homo sapiens, UniProt P35462)
Description: Binding affinity towards human Dopamine receptor D3

[12] = in vivo; settings: sc
Description: Therapeutic ratio by Subcutaneous dose of administration (quotient ED50 catalepsy/ED50 climbing)

[13] = molecular target: 5-hydroxytryptamine receptor 2A (Rattus norvegicus, UniProt P14842); assay: biochemical
Description: Binding affinity towards 5-hydroxytryptamine 2A receptor from rat frontal cortex using [3H]ketanserin as radioligand

[14] = molecular target: T3, Adrenergic receptor alpha-1 (Rattus norvegicus, UniProt P15823+P23944+P43140); assay: Binding affinity towards alpha-1 adrenergic receptor from rat brain membranes using [3H]prazosin as radioligand
T3 sequence (P15823 whole entry): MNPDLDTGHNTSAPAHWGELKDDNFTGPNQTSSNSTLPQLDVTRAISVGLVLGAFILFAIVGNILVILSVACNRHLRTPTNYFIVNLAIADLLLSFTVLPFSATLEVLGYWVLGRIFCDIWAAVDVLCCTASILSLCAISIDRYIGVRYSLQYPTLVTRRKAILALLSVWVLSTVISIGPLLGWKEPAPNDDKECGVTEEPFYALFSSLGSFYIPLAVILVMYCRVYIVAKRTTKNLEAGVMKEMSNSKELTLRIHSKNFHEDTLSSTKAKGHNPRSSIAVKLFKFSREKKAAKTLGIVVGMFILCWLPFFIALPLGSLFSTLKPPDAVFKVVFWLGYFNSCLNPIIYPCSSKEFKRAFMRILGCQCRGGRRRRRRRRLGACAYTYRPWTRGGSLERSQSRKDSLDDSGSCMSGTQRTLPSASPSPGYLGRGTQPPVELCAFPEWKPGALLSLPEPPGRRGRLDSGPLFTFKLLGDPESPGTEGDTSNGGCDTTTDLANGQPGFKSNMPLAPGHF
T3 sequence (P23944 whole entry): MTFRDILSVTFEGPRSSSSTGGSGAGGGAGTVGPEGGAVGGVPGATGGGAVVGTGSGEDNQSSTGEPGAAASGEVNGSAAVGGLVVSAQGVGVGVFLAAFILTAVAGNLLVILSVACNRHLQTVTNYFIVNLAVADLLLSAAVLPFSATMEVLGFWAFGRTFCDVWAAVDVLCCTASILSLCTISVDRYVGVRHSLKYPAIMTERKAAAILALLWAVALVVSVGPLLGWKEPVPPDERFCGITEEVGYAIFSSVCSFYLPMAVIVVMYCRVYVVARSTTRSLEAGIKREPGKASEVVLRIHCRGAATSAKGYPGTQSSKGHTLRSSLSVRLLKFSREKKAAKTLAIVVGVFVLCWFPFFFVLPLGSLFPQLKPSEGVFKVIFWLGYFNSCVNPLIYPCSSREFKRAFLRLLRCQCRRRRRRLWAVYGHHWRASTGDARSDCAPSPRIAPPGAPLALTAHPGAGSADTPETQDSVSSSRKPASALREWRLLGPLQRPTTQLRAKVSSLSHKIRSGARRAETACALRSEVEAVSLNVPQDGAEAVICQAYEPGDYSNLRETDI
T3 sequence (P43140 whole entry): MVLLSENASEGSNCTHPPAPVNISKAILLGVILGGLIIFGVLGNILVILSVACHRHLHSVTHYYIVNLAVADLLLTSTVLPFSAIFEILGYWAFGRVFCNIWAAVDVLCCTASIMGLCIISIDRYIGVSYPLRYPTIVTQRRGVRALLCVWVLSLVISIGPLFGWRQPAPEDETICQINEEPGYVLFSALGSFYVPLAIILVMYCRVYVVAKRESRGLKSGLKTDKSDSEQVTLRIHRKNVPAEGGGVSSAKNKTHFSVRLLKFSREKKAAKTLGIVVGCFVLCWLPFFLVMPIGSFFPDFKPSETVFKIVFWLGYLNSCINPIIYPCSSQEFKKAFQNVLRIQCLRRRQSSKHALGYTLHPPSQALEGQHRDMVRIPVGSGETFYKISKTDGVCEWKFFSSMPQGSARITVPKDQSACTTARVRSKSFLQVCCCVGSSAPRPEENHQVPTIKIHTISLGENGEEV

[15] = molecular target: T4, 5-hydroxytryptamine receptor 2C (Rattus norvegicus, UniProt P08909)
T4 sequence (P08909 whole entry): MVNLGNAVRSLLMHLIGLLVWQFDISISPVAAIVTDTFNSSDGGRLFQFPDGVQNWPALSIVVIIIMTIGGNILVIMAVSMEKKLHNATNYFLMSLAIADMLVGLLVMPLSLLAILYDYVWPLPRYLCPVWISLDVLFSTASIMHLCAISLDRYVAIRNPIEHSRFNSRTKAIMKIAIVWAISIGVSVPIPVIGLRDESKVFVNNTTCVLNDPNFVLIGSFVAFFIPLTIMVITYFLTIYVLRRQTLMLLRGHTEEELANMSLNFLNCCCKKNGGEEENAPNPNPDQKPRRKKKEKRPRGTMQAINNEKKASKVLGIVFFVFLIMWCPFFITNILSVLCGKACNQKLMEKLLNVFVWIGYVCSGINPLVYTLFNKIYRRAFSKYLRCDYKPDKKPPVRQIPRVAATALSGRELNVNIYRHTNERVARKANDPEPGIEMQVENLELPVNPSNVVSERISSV
Description: Binding affinity towards 5-HT2C receptor from rat using [3H]mesulergine as radioligand

[16] = molecular target: D(1A) dopamine receptor (Rattus norvegicus, UniProt P18901); assay: biochemical
Description: Binding affinity towards D1 CNS receptor of rat corpus striatum using [3H]SCH-23390 as radioligand

[17] = system: Mus musculus; assay: Compound is measured for inhibition of apomorphine induced climbing affects in mice by administering the compound subcutaneously (sc) in mice; format: functional
[18] = Antipsychotic activity was determined from subcutaneous administration of compound in mice (ED50 catalepsy-ED50 Climbing); format: functional
[19] = species on record: Rattus norvegicus; assay: Ex vivo accumulation of L-DOPA was measured in striatum of rats
[20] = molecular target: T3, Adrenergic receptor alpha-1; assay: In vitro binding affinity towards Alpha-1 adrenergic receptor by the displacement of [3H]prazosin radioligand in rat cortical homogenates
[21] = molecular target: T1, D(4) dopamine receptor; assay: Compound was tested in vitro for its binding affinity towards human Dopamine receptor D4.2
[22] = system: Rattus norvegicus; assay: Compound is measured for inhibition of catalepsy in rats by peroral administration of compound; format: functional; settings: po
[23] = system: Rattus norvegicus; assay: Compound is measured for inhibition of catalepsy in rats by subcutaneous administration of compound; format: functional; settings: sc
[24] = Mus musculus, po, read-out: ED50

D(3) dopamine receptor, sequence (P35462 whole entry): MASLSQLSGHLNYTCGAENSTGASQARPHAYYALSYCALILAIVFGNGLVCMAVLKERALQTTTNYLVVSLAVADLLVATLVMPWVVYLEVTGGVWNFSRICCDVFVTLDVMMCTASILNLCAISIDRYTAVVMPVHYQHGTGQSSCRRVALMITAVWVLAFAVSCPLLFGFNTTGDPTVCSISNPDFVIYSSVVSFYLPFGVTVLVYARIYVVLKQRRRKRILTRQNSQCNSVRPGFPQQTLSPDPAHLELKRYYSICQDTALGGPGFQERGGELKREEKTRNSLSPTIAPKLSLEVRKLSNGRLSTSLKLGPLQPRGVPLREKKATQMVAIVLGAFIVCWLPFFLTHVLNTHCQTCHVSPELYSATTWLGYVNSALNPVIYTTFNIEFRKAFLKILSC
5-hydroxytryptamine receptor 2A, sequence (P14842 whole entry): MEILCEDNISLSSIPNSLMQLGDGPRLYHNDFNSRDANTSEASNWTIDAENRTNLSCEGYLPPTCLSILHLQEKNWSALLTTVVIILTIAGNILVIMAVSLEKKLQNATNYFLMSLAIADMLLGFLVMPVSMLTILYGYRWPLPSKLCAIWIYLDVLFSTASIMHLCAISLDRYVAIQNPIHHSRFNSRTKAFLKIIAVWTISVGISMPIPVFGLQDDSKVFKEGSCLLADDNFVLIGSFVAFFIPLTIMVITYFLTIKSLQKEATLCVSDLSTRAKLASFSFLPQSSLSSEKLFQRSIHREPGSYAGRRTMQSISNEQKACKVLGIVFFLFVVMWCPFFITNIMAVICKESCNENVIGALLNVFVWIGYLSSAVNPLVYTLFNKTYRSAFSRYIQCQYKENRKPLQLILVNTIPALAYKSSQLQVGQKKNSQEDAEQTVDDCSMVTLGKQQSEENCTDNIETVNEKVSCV
D(1A) dopamine receptor, sequence (P18901 whole entry): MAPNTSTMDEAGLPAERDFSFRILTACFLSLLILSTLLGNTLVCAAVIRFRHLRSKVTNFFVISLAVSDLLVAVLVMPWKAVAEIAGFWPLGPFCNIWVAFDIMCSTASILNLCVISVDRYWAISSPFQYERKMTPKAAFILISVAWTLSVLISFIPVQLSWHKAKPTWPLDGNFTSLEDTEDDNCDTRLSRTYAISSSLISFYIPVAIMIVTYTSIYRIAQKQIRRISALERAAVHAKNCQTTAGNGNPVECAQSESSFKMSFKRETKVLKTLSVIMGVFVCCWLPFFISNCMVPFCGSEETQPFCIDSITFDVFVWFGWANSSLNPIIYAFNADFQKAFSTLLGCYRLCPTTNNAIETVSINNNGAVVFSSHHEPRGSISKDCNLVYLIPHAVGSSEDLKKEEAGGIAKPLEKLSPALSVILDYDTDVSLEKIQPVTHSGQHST

SMILES | logP [1] | pIC50 [2] | pIC50 [5] | pIC50 [11] | ED50 [3, 24] [mg/kg] | ED50 [4] [mg/kg] | ED50 [6] [mg/kg] | ED50 [7] [mg/kg] | Delta ED50 [9] [mg/kg] | selectivity ratio [12] | other results
CN1CCN(C2=Nc3ccccc3Nc3ccc(OS(=O)(=O)C(F)(F)F)cc32)CC1 | 3.58 | 6.92 | < 6.00 | 7.28 | 11 | 2.1 | > 100 | > 44 | >41.9 | > 20 | selectivity ratio [8]: > 9; Delta ED50 [10]: >89 mg/kg; pIC50 [13]: 7.37
COc1ccc2c(c1)C(N1CCN(C)CC1)=Nc1ccccc1N2 | 2.71 |  |  |  |  |  |  |  |  |  | 
COc1ccc2c(c1)N=C(N1CCN(C)CC1)c1ccccc1N2 | 2.71 |  |  |  |  |  |  |  |  |  | 
CN1CCN(C2=Nc3ccccc3Sc3ccc(Cl)cc32)CC1 [CLOTHIAPINE] |  |  |  |  |  |  |  | 0.72 |  | 2.7 | ED50 [17]: 0.27 mg/kg; Delta ED50 [18]: 0.45 mg/kg
CN1CCN(C2=Nc3cc(Cl)ccc3Nc3ccccc32)CC1 [CLOZAPINE] | 3.48 |  |  |  | 17 | 5.6 | > 100 | > 32.6 |  |  | ED50 [19]: 17 mg/kg
CN1CCN(C2=Nc3ccccc3Oc3ccc(Cl)cc32)CC1 [LOXAPINE] |  |  | 5.26 | 7.66 | 0.04 |  |  |  |  |  | IC50 [20]: 18 nM; pIC50 [21]: 7.85; ED50 [3]: 0.04 mg/kg; ED50 [22]: < 1 mg/kg; ED50 [23]: 0.35 mg/kg

Second part, led by results:

logP [1] | pIC50 [2] | pIC50 [5] | pIC50 [11] | SMILES | ED50 [3, 24] [mg/kg] | ED50 [4] [mg/kg] | ED50 [6] [mg/kg] | ED50 [7] [mg/kg] | Delta ED50 [9] [mg/kg] | selectivity ratio [12] | other results
4.04 | 6.24 | 6.34 | 8.10 | CN1CCN(C2=Nc3ccccc3Sc3ccc(OS(=O)(=O)C(F)(F)F)cc32)CC1 |  | 2.6 |  | 30 | 27.4 | 11.5 | IC50 [14]: 3.6 nM; pIC50 [15]: 6.55; pIC50 [13]: 6.96; pIC50 [16]: 7.00
3.98 |  |  |  | O=C(CCCN1CCC(O)(c2ccc(Cl)cc2)CC1)c1ccc(F)cc1 [HALOPERIDOL] |  | 0.1 | 1.5 | 0.25 |  |  | ED50 [19]: 0.1 mg/kg
3.48 | 6.96 |  | 6.92 | CN1CCN(C2=Nc3ccccc3Nc3ccc(Cl)cc32)CC1 [ISOCLOZAPINE] |  | 1.7 |  | 2 | 0.3 |  | 
